One series relates to EoE and EoGIDs. The conditions noted are these: cited from earlier work.
Series [1] has as its system Eosinophilic Esophagitis (EoE). The series is described as follows: Example 1: oral Irsogladine maleate in patient one with active eosinophilic esophagitis. Format: in vivo, human. The conditions noted are these: 12 weeks. From the text: […] […] […] A esophageal pH-metric study, performed without PPI treatment, was informed as normal. […] Without other type of examination, JCC was empirically treated in three occasions with Budesonide.
When seen, JCC was symptomatic, with difficulties to swallow food. Because of the symptoms and clinical history, Eosinophilic Esophagitis was suspected (Lucendo A J, et al. supra; Dellon E S, et al. supra; Lipowska A M, Kavitt R T. Current Diagnostic and Treatment Strategies for Eosinophilic Esophagitis. Gastroenterol Hepatol (N Y) 2017; 13(9):527-535). […] They had neither blood nor urine biological tests abnormalities. […] An Enteral Magnetic Resonance Imaging was informed as normal, without inflammatory features, increased wall thickness or strictures in the gastro-intestinal tract.
Simultaneously, biopsies were taken in all organs examined. […] Biopsies met the histological criteria of active eosinophil esophagitis (Lee S, de Boer W B, Naran A, et al. More than just counting eosinophils: proximal oesophageal involvement and subepithelial sclerosis are major diagnostic criteria for eosinophilic oesophagitis. J Clin Pathol. 2010; 63 (7):644-647; Collins M H, Capocelli K, Yang G Y. Eosinophilic Gastrointestinal Disorders Pathology. Front Med (Lausanne). 2018; 4:261). Gastric, duodenal and upper jejunal biopsies were reported as normal.
Consequently, JJC was diagnosed with active eosinophlic esophagitis. At this point in time, JJC was treated with oral Irsogladine maleate tablets, 2 mg twice a day during 12 weeks, exempting JJC from other therapies.
Also, at end of the Irsogladine treatment, endoscopic examination was repeated using Narrow Band Imaging (NBI). This technique is able to detect minimal changes in mucosa surface.

For series [2], the system named is Eosinophilic Esophagitis (EoE). Nature of the series: Example 2: oral Irsogladine maleate in patient three with eosinophilic esophagitis. It counts as in vivo, human. On the procedure: […] […] […] Pain tended to increase while eating.
Endoscopic procedures were performed. Colonoscopy of the entire colon and 20 cm of the distal ileum were informed as normal and staged biopsies were taken. […] Biopsies were taken in all upper gastrointestinal tract organs examined. Both, clinical symptoms and endoscopic findings are in accordance with the clinical and endoscopic criteria of EoE (Lucendo A J, Molina-Infante J, Arias Á, et al. Guidelines on eosinophilic esophagitis: evidence-based statements and recommendations for diagnosis and management in children and adults. United European Gastroenterol J. 2017; 5 (3):335-358; Dellon E S, Liacouras C A, Molina-Infante J, et al. Updated International Consensus Diagnostic Criteria for Eosinophilic Esophagitis: Proceedings of the AGREE Conference. Gastroenterology. 2018; 155 (4):1022-1033.e10.; Lipowska AM, Kavitt R T. Current Diagnostic and Treatment Strategies for Eosinophilic Esophagitis. Gastroenterol Hepatol (N Y) 2017; 13 (9):527-535; Hirano I, Moy N, Heckman M G, Thomas C S, Gonsalves N, Achem S R. Endoscopic assessment of the oesophageal features of eosinophilic oesophagitis: validation of a novel classification and grading system. Gut. 2013; 62 (4):489-495; Muir A B, Merves J, Liacouras C A. Role of Endoscopy in Diagnosis and Management of Pediatric Eosinophilic Esophagitis. Gastrointest Endosc Clin N Am. 2016; 26 (1):187-200).
These biopsies meet the diagnostic criteria of Eosinophilic Esophagitis (Lee S, de Boer W B, Naran A, et al. More than just counting eosinophils: proximal oesophageal involvement and subepithelial sclerosis are major diagnostic criteria for eosinophilic oesophagitis. J Clin Pathol. 2010; 63 (7):644-647; Collins M H, Capocelli K, Yang G Y. Eosinophilic Gastrointestinal Disorders Pathology. Front Med (Lausanne). 2018; 4: 261).
Upon confirming the diagnosis with Eosinophilic Esophagitis, JPV was treated with 4 mg of oral Irsogladine maleate twice a day for 8 weeks, without following any other treatment such as food elimination or pharmaceutical treatments (i.e. corticosteroids or monoclonal antibodies).
Due to the therapeutic efficacy shown by Irsogladine administration, it was decided to prolong JPV treatment for an additional 24 weeks (in total 32 weeks), at the same dose, with regular telephone and presential checking of symptoms and general health. […] Esophageal biopsies were taken showing no excess of eosinophil infiltrate (<10 cells/hpf) (FIGS. 12 and 13). There was neither peripheral blood eosinophilia (315 cells mm^3) nor anemia or any biological signs of inflammation.

In a further series the test system is eosinophilic jejunitis. The series is described as follows: Example 3: Irsogladine maleate in patient two with mild eosinophilic jejunitis. Format: in vivo, human.
Setting [3] is: patients with EoE or EoGIDs, literature reports.
Where [4] appears, read: 2 mg twice a day, listed as Irsogladine Maleate.
Where [5] appears, read: 4 mg twice a day, 8 weeks, listed as Irsogladine Maleate.

“Also recorded” adds a separate entry of the source. Where a name gives a salt, the structure may show the parent alone.

Turning to “Omalizumab: anti-IgE, targets a highly affinity receptor binding site of human IgE”, the “induction or maintenance of disease remission” value in the series with EoE and EoGIDs (eosinophilic esophagitis, literature reports) is listed as “failed to control or induce remission”. For the same compound, in the series with EoE and EoGIDs (setting [3]), the clinical symptoms result is “variable effects” and the tissue eosinophil infiltrate result was “non-significant decrease”.
With `Cn1cnc([N+](=O)[O-])c1Sc1ncnc2nc[nH]c12` [Azathioprine], the side effects entry with EoE and EoGIDs (setting [3]) is “not free of side effects”. In addition, the efficacy entry in the series with EoE and EoGIDs (two reports, small number of cases of EoE and EoGE) is listed as “has shown efficacy”.
For `Nc1nc(N)nc(-c2cc(Cl)ccc2Cl)n1` [Irsogladine maleate], the “endoscopic examination of esophageal mucosa (Narrow Band Imaging)” value in series [1] (setting [4]) is “Mucosa white plaques and circular trachealization disappeared”. In series [1] (setting [4]), the “histologic features of esophageal biopsy (eosinophil infiltration, intercellular spaces)” value was “Eosinophil infiltration has clearly reduced, and intercellular spaces are back to normal”. The “endoscopic aspect of esophageal mucosa” value in series [2] (setting [5]) is “Esophageal linear furrows, white plaques and a tendency to trachealization have disappeared”; in series [2] (32 weeks of treatment, listed as Irsogladine Maleate), “normal”. In series [2] (setting [5]), the “histologic features of esophageal biopsy (eosinophil infiltration, microabscesses, intercellular spaces)” value is recorded as “absence of eosinophil infiltration”. The “histological aspect of esophageal mucosa” value in series [2] (32 weeks of treatment) is “strictly normal”. The symptoms entry in the series on eosinophilic jejunitis (4 mg twice a day, after 2 weeks) is “symptoms improved”; in the series with eosinophilic jejunitis (4 mg twice a day, after 4 weeks) it was “fully asymptomatic”; in the series with eosinophilic jejunitis (after 6 months maintenance treatment, 4 mg once a day), “remained asymptomatic”. The gastrointestinal upper endoscopy entry with eosinophilic jejunitis (after 6 months treatment) is “considered normal; also recorded: normal looking upper jejunal mucosa”. Besides, the “histology of upper jejunal mucosa biopsy” value in the series with eosinophilic jejunitis (after six months of daily treatment) is “normal looking villi and no increase of eosinophilic infiltration”.
As to Infliximab: Anti-TNFα mAb, in the series on EoE and EoGIDs (setting [3]), the clinical symptoms result is on record as “have not shown efficacy” and the tissue eosinophil infiltrate entry is on record as “have not shown efficacy”.
In the case of `CCN(CCCCOC(=O)c1ccc(OC)c(OC)c1)C(C)Cc1ccc(OC)cc1.Cl` (stereo not drawn) [Mebeverine Chlorhydrate], the “response of symptoms to earlier symptomatic treatment” value in the series with eosinophilic jejunitis (Omeprazole 20 mg twice a day and Mebeverine Chlorhydrate 200 mg twice daily, long periods, before Irsogladine) was “no improvement”.
With `Nc1nc(N)nc(-c2cc(Cl)ccc2Cl)n1` [Irsogladine, 6-(2,5-Dichlorophenyl)-1,3,5-triazine-2,4-diamine], in series [1] (2 mg twice a day), the disease remission result is on record as “therapeutically effective in inducing disease remission”; the “endoscopic examination of esophageal mucosa (Narrow Band Imaging)” value is “esophageal mucosal furrows, white plaques and trachealization lesions had disappeared”; the “histologic features of esophageal biopsy (eosinophil infiltration, intercellular spaces)” value is recorded as “no dilation of intercellular spaces”; the side effects entry is “No side effects”. Moreover, the symptoms result in series [1] (2 mg twice a day) is “Symptoms had disappeared”. Moreover, the “eosinophil counts in biopsies of the esophageal mucosa” value in series [1] (oral tablets 2 mg twice a day, before treatment more than 30 cells per HPF, EoE threshold 15 counts per HPF) is “less than 5 per HPF”. Further, the “eosinophil counts in esophageal biopsy” value in series [2] (4 mg oral twice a day, 8 weeks, before treatment more than 50 per HPF) is “less than 15 per HPF”. In addition, in series [2] (4 mg twice a day, 8 weeks), the disease remission entry is given as “therapeutically effective to induce remission”; the “endoscopic aspect of esophageal mucosa” value is “endoscopically normal”; the “histologic features of esophageal biopsy (eosinophil infiltration, microabscesses, intercellular spaces)” value is “negligible presence of eosinophil infiltration; also recorded: no eosinophilic microabscesses and absence of intercellular dilated spaces”; the side effects entry is “No side effects”. Moreover, in series [2] (4 mg twice a day, 8 weeks), the symptoms entry is listed as “completely disappeared”. Besides, the “eosinophil infiltrate in esophageal biopsies” value in series [2] (4 mg twice a day, additional 24 weeks (in total 32 weeks)) is < 10 cells/hpf. For the same compound, in series [2] (32 weeks of treatment), the “endoscopic aspect of esophageal mucosa” value is “normal looking mucosa” and the “side effects of long-term administration” value is reported as “No side effects”.
Turning to Benralizumab: mAb against IL-5 receptor, in the series with EoE and EoGIDs (setting [3]), the clinical symptoms result was “did not correspond with clinical improvement” and the tissue eosinophil infiltrate result was “significant reduction”.
